Test system: rat heart tissue
Test: GENECALLING differential gene expression analysis after dosing of serotonin modulating agents
Type: in vivo, Sprague Dawley rats
Procedure, shortened: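 Rats dosed with serotonin modulating agents, controls given sterile water or canola oil; tissue taken 24 h after the last dose. Total RNA converted to cDNA and profiled by GENECALLING differential expression analysis; fragments changed more than ±1.5-fold were selected.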

## CNCCC(Oc1ccc(C(F)(F)F)cc1)c1ccccc1 (stereo not shown) [fluoxetine]
CARDIOTOX 70
  Effects on Transcription Level: Novel gene fragment, 467 bp, 94% SI to mouse gelsolin [J04953]: −3.8 fold
CARDIOTOX 71
  Effects on Transcription Level: Novel gene fragment, 535 bp, 90% SI to mouse slow/cardiac troponin C [M29793]: −2.0 fold
CARDIOTOX 72
  Effects on Transcription Level: Novel gene fragment, 445 bp, 85% SI to human skeletal muscle alpha 2 actinin [M86406]: −1.6 fold
CARDIOTOX 73
  Effects on Transcription Level: Novel gene fragment, 246 bp, 89% SI to mouse ponsin-1 [AF078667]: −2.5 fold
CARDIOTOX 74
  Effects on Transcription Level: Novel gene fragment, 126 bp, 77% SI to human DNA sequence from cosmid V311G7, between markers DXS366 and DXS87 on chromosome X [Z69304]: +2.0 fold
CARDIOTOX 75
  Effects on Transcription Level: Novel gene fragment, 370 bp: −1.9 fold
CARDIOTOX 76
  Effects on Transcription Level: Novel gene fragment, 337 bp, 78% SI to novel human protein AHNAK [M80899]: −2.5 fold
CARDIOTOX 77
  Effects on Transcription Level: Novel gene fragment, 100 bp, 93% SI to human KIAA0750 protein [ABO18293]: −7.6 fold
CARDIOTOX 78
  Effects on Transcription Level: Novel gene fragment, 44 bp: −5.6 fold
CARDIOTOX 79
  Effects on Transcription Level: Novel gene fragment, 698 bp, 93% SI to mouse plenty-of-prolines-101 [AF062655]: −2.3 fold
CARDIOTOX 80
  Effects on Transcription Level: Novel gene fragment, 660 bp, 84% SI to mouse membrane protein TMS-2 [AF181685]: −4.1 fold
CARDIOTOX 81
  Effects on Transcription Level: Novel gene fragment, 115 bp: −8.1 fold
CARDIOTOX 82
  Effects on Transcription Level: Novel gene fragment, 294 bp, 95% SI to mouse Ndr1 related protein Ndr2 [AB033921]: −2.5 fold
CARDIOTOX 83
  Effects on Transcription Level: Novel gene fragment, 198 bp: +2.5 fold
CARDIOTOX 84
  Effects on Transcription Level: Novel gene fragment, 730 bp, 86% SI to mouse E800 [Y10968]: −1.8 fold
CARDIOTOX 85
  Effects on Transcription Level: Novel gene fragment, 294 bp, 98% SI to cysteine conjugate beta-lyase [S61960]: −1.8 fold
CARDIOTOX 86, GenBank A1243266
  Effects on Transcription Level: Aconitase: −3.9 fold
CARDIOTOX 87, GenBank M17422
  Effects on Transcription Level: Ribosomal protein L7: +2.7 fold
CARDIOTOX 88, GenBank X51706
  Effects on Transcription Level: Ribosomal protein L9: +6.0 fold
CARDIOTOX 89, GenBank X53504
  Effects on Transcription Level: Ribosomal protein L12: −2.2 fold
CARDIOTOX 90, GenBank V01270
  Effects on Transcription Level: 18S, 5.8S, and 28S ribosomal RNA's: +7 fold
CARDIOTOX 91, GenBank U10357
  Effects on Transcription Level: Pyruvate dehydrogenase kinase 2 (PDK2): −11.3 fold
CARDIOTOX 92, GenBank J03179
  Effects on Transcription Level: D-Binding Protein (DBP): −1.5 fold
CARDIOTOX 93, GenBank L03294
  Effects on Transcription Level: Lipoprotein lipase: −3.7 fold
CARDIOTOX 94, GenBank X02610
  Effects on Transcription Level: Non-neuronal enolase: +3.1 fold
CARDIOTOX 95, GenBank L10669
  Effects on Transcription Level: Glycogen phosphorylase (muscle isozyme): −3.0 fold
CARDIOTOX 96, GenBank X14209
  Effects on Transcription Level: Cytochrome c oxidase subunit IV: +8.0 fold
CARDIOTOX 97, GenBank M17083
  Effects on Transcription Level: Alpha-globin: +2.9 fold
CARDIOTOX 98, GenBank X06701
  Effects on Transcription Level: Beta-globin: +4.0 fold
CARDIOTOX 99, GenBank AF197916
  Effects on Transcription Level: Myoglobin: +2.2 fold
CARDIOTOX 100, GenBank L38717
  Effects on Transcription Level: Titin: +1.6 fold
CARDIOTOX 101, GenBank V01218
  Effects on Transcription Level: Skeletal muscle actin: −13.1 fold
CARDIOTOX 102, GenBank M11851
  Effects on Transcription Level: Myosin light chain 2 (MLC2): +3.6 fold
CARDIOTOX 103, GenBank X15938
  Effects on Transcription Level: Alpha cardiac myosin heavy chain: −4.8 fold
CARDIOTOX 104, GenBank U77354
  Effects on Transcription Level: Troponin I: +1.6 fold
CARDIOTOX 105, GenBank AF001334
  Effects on Transcription Level: Cardiac calsequestrin: −2.4 fold
CARDIOTOX 106, GenBank M16975
  Effects on Transcription Level: Sulfated glycoprotein 2: −2.2 fold
CARDIOTOX 107, GenBank AB000507
  Effects on Transcription Level: Aquaporin 7: +1.8 fold
CARDIOTOX 108, GenBank X97831
  Effects on Transcription Level: Carnitine/acylcarnitine carrier protein: −2.6 fold
CARDIOTOX 109, GenBank U40628
  Effects on Transcription Level: Glu-Pro Dipeptide Repeat: −3.1 fold
CARDIOTOX 110, GenBank X54737
  Effects on Transcription Level: Cystatin beta: +2.5 fold
CARDIOTOX 111
  Effects on Transcription Level: Novel gene fragment, 593 bp, 90% SI to human calcineurin B-like protein [Z08983]: +2.1 fold
CARDIOTOX 112
  Effects on Transcription Level: Novel gene fragment, 179 bp, 88% SI to human titin [X90568]: −1.8 fold
CARDIOTOX 113
  Effects on Transcription Level: Novel gene fragment, 700 bp, 91% SI to mouse periplakin (PPL) [AF116523]: +2.1 fold
CARDIOTOX 114, GenBank J05029
  Effects on Transcription Level: Long chain acyl-CoA dehydrogenase (LCAD): +1.6 fold
CARDIOTOX 115, GenBank M19936
  Effects on Transcription Level: Sulfated glycoprotein 1 (SGP-1): −2.1 fold
CARDIOTOX 116, GenBank M11670
  Effects on Transcription Level: Catalase: +1.9 fold
CARDIOTOX 117, GenBank AF084186
  Effects on Transcription Level: Alpha-fodrin (A2A) (Nonerythroid spectrin alpha subunit): −1.6 fold
CARDIOTOX 118, GenBank M27902
  Effects on Transcription Level: Cardiac specific sodium channel alpha-subunit: −2.1 fold
CARDIOTOX 119, GenBank U40628
  Effects on Transcription Level: Glu-Pro Dipeptide Repeat: +2.7 fold
CARDIOTOX 120
  Effects on Transcription Level: Novel gene fragment, 200 bp, 64% SI to human KIAA0733 protein [AB018316]: −1.6 fold
CARDIOTOX 121, GenBank L42855
  Effects on Transcription Level: RNA polymerase II transcription factor SIII (p18 subunit): +1.8 fold
CARDIOTOX 122, GenBank L01702
  Effects on Transcription Level: Protein-tyrosine phosphalase (LRP): +1.5 fold
CARDIOTOX 123, GenBank U25264
  Effects on Transcription Level: Skeletal muscle selenoprotein W (SelW): −1.6 fold
CARDIOTOX 124, GenBank X15635
  Effects on Transcription Level: Sarcoplasmic reticulum 2+-Ca-ATPase: −1.8 fold
CARDIOTOX 125, GenBank X53377
  Effects on Transcription Level: Ribosomal protein S7: +1.3 fold
CARDIOTOX 126, GenBank X05300
  Effects on Transcription Level: Ribophorin I: +1.4 fold
CARDIOTOX 127, GenBank X15939
  Effects on Transcription Level: Beta cardiac myosin heavy chain: +1.4 fold
CARDIOTOX 128, GenBank L12380
  Effects on Transcription Level: ADP-ribosylation factor 1: −1.0 fold
CARDIOTOX 129, GenBank U04942
  Effects on Transcription Level: Laminin receptor: −1.5 fold
CARDIOTOX 130
  Effects on Transcription Level: Novel gene fragment, 206 bp, 89% SI to human seryl-tRNA synthetase [X91257]: +1.7 fold
CARDIOTOX 131, GenBank X86086
  Effects on Transcription Level: Annexin VI: +1.3 fold
CARDIOTOX 132
  Effects on Transcription Level: Novel gene fragment, 325 bp, 90% SI to mouse N-RAP [U76618]: +1.4 fold
LD10 dose for three days
  Effects on Transcription Level: Novel gene fragment, 61 bp (CARDIOTOX 134): −1.2 fold
  Effects on Transcription Level: Novel gene fragment, 337 bp (CARDIOTOX 133): +1.0 fold
  Effects on Transcription Level: Novel gene fragment, 378 bp, 88% SI to human coatomer protein (COPA) [U24105] (CARDIOTOX 138): −1.1 fold
LD10 dose for three days, GenBank D16479
  Effects on Transcription Level: Long chain 3-ketoacyl-CoA thiolase (CARDIOTOX 136): −1.1 fold
LD10 dose for three days, GenBank D87671
  Effects on Transcription Level: TATA-binding protein interacting protein 120 (TIP120) (CARDIOTOX 135): +1.4 fold
LD10 dose for three days, GenBank D88250
  Effects on Transcription Level: Serine protease (CARDIOTOX 139): +1.5 fold
LD10 dose for three days, GenBank M34043
  Effects on Transcription Level: Thymosin beta-4 (CARDIOTOX 137): +1.4 fold
